This passage reports inhibition and Ki results from patent publication US8518957B2, “Methanocarba adenosine derivatives, pharmaceutical compositions, and method of reducing intraocular pressure” (The United States of America, as represented by the …, priority 2009, dated 2013).

One assay has as its target T1, human A1 AR (Homo sapiens, UniProt P30542).
T1 construct: expressed in transfected cells
T1 sequence (P30542 1-326): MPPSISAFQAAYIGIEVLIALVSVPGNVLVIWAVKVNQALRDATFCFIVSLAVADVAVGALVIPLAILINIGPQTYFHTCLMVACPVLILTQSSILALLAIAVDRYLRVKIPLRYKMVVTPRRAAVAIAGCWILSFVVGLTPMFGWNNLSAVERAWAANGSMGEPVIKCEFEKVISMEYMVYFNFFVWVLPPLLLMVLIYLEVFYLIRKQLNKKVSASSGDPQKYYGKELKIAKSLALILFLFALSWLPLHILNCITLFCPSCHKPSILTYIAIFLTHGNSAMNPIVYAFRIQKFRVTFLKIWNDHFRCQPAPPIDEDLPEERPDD
The assay is described as follows: Radioligand binding at human A1 AR ([3H]NECA, membranes of CHO cells). Conditions: for Ki: Example 7, agonist radioligand [3H]45, read-out: AR Affinity Ki, nM, A1. How it is done:
(§1) [^3H](2-[p-(2-Carboxyethyl)phenyl-ethylamino]-5′-N-ethylcarboxamido-adenosine) (37, [^3H]CGS21680, 40.5 Ci/mmol) and [^125I]N^6-(4-amino-3-iodobenzyl)adenosine-5′-N-methyluronamide (38, [^125I]I-AB-MECA, 2200 Ci/mmol) were purchased from Perkin-Elmer Life and Analytical Science (Boston, Mass.). Test compounds were prepared as 5 mM stock solutions in DMSO and stored frozen at −20° C.
(§2) CHO cells stably expressing the recombinant hA1 and hA3Rs, and HEK-293 cells stably expressing the hA2AAR were cultured in Dulbecco's modified Eagle medium (DMEM) and F12 (1:1) supplemented with 10% fetal bovine serum, 100 units/mL penicillin, 100 μg/mL streptomycin, and […] glutamine. In addition, 800 μg/mL geneticin was added to the A2A media, while 500 μg/mL hygromycin was added to the A1 and A3 media. After harvesting, cells were homogenized and suspended in PBS. Cells were then centrifuged at 240 g for 5 min, and the pellet was resuspended in 50 mM Tris-HCl buffer (pH 7.5) containing 10 mM MgCl2. The suspension was homogenized and was then ultra-centrifuged at 14,330 g for 30 min at 4° C. The resultant pellets were resuspended in Tris buffer, incubated with adenosine deaminase (3 units/mL) for 30 min at 37° C. The suspension was homogenized with an electric homogenizer for 10 sec, pipetted into 1 mL vials and then stored at −80° C. until the binding experiments were conducted. The protein concentration was measured using the BCA Protein Assay Kit from Pierce Biotechnology, Inc. (Rockford, Ill.).
(§3) Into each tube in the binding assay was added 50 μL of increasing concentrations of the test ligand in Tris-HCl buffer (50 mM, pH 7.5) containing 10 mM MgCl2, 50 μl, of the appropriate agonist radioligand, and finally 100 μL of membrane suspension. For the A1AR (22 μg of protein/tube) the radioligand used was [^3H]36 (final concentration of 3.5 nM). For the A2AAR (20 μg/tube) the radioligand used was [^3H]37 (10 nM). For the A3AR (21 μg/tube) the radioligand used was [^125I]38 (0.34 nM). Nonspecific binding was determined using a final concentration of 10 μM unlabeled 36 diluted with the buffer. The mixtures were incubated at 25° C. for 60 min in a shaking water bath. Binding reactions were terminated by filtration through Brandel GF/B filters under a reduced pressure using a M-24 cell harvester (Brandel, Gaithersburg, Md.). Filters were washed three times with 3 mL of 50 mM ice-cold Tris-HCl buffer (pH 7.5). Filters for A1 and A2AAR binding were placed in scintillation vials containing 5 mL of Hydrofluor scintillation buffer and counted using a Perkin Elmer Liquid Scintillation Analyzer (Tri-Carb 2810TR). Filters for A3AR binding were counted using a Packard Cobra II γ-counter. The Ki values were determined using GraphPad Prism for all assays.
(§4) [^3H](2-[p-(2-carboxyethyl)phenyl-ethylamino]-5′-N-ethylcarboxamido-adenosine) ([^3H]CGS21680, 40.5 Ci/mmol) and [^125I]N^6-(4-amino-3-iodobenzyl)adenosine-5′-N-methyluronamide ([^125I]I-AB-MECA, 2200 Ci/mmol) were purchased from PerkinElmer. Test compounds were prepared as 5-mM stock solutions in DMSO and stored frozen at −20° C.
(§5) Chinese hamster ovary (CHO) cells were generated by stably expressing the recombinant hA1 and hA3 and human embryonic kidney (HEK) 293 cells stably expressing the hA2AAR in DMEM and F12 (1:1) supplemented with 10% fetal bovine serum, 100 units/mL penicillin, 100 μg/mL streptomycin, and 2 μmol/mL glutamine. 800 μg/mL Geneticin were added to the A2A media and 500 μg/mL hygromycin to the A1 and A3 media. After harvesting the cells, they were homogenized with an electric homogenizer for 10 sec, pipetted them into 1-mL vials, and then stored them at −80° C. until the binding experiments were conducted. The protein concentration was measured with a BCA Protein Assay Kit from Pierce Biotechnology (Rockford, Ill.). […]

A further assay addresses T2, hA2AAR (Homo sapiens, UniProt P29274).
T2 construct: expressed in transfected cells
Description: Radioligand binding at human A2A AR ([3H]CGS21680, membranes of HEK-293 cells). How it is done: as §1, §2, §3, §4, §5

Another assay has as its target T3, human A3AR (Homo sapiens, UniProt P0DMS8).
T3 construct: expressed in transfected cells
T3 sequence (P0DMS8 1-318): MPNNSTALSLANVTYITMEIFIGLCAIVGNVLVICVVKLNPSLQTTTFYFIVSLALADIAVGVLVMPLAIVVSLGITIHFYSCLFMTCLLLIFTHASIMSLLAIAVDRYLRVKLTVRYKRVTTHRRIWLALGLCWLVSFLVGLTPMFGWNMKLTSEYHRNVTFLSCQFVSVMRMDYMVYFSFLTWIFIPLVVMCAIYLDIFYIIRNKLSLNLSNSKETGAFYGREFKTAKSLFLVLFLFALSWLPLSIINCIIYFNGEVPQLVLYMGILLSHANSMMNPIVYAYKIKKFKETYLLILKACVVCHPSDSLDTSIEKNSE
The assay is described as follows: Radioligand binding at human A3 AR ([125I]I-AB-MECA, membranes of CHO cells). Conditions: Example 7; agonist radioligand [125I]47; read-out: AR Affinity Ki, nM, A3. The procedure:
Test compounds were prepared as 5 mM stock solutions in DMSO and stored frozen at −20° C.
as §2
as §3, with “For the A1AR (22 μg of protein/tube) the radioligand used was [^3H]36 (final concentration of 3.5 nM).” left out, “For the A3AR (21 μg/tube) the radioligand used was [^125I]38 (0.34 nM).” left out, “Filters for A1 and A2AAR binding were placed in scintillation vials containing 5 mL of Hydrofluor scintillation buffer and counted using a Perkin Elmer Liquid Scintillation Analyzer (Tri-Carb 2810TR).” left out
Test compounds were prepared as 5-mM stock solutions in DMSO and stored frozen at −20° C.
Chinese hamster ovary (CHO) cells were generated by stably expressing the recombinant hA1 and hA3 and human embryonic kidney (HEK) 293 cells stably expressing the hA2AAR in DMEM and F12 (1:1) supplemented with 10% fetal bovine serum, 100 units/mL penicillin, 100 μg/mL streptomycin, and 2 μmol/mL glutamine. 800 μg/mL Geneticin were added to the A2A media and 500 μg/mL hygromycin to the A1 and A3 media. After harvesting the cells, they were homogenized with an electric homogenizer for 10 sec, pipetted them into 1-mL vials, and then stored them at −80° C. until the binding experiments were conducted. The protein concentration was measured with a BCA Protein Assay Kit from Pierce Biotechnology (Rockford, Ill.).
Each tube in the binding assay contained 50 μL of increasing concentrations of the test ligand in Tris-HCl buffer (50 mM, pH 7.5) containing 10 mM MgCl2, 50 μL of the appropriate agonist radioligand, and 100 μL membrane suspension, added sequentially. […] For the A2AAR (20 μg/tube), the radioligand [^3H]CGS21680 was used (−10 nM). […] The mixtures were incubated at 25° C. for 60 min in a shaking water bath. The binding reactions were terminated by filtration through Brandel GF/B filters under a reduced pressure with a M-24 cell harvester (Brandel, Gaithersburg, Md.). Filters were washed three times with 3 mL 50-mM ice-cold Tris-HCl buffer (pH 7.5). […] The filters were counted for A3AR binding with a Packard Cobra II γ-counter (PerkinElmer). The Ki values were determined with GraphPad Prism for all assays.

T2 sequence (P29274 whole entry): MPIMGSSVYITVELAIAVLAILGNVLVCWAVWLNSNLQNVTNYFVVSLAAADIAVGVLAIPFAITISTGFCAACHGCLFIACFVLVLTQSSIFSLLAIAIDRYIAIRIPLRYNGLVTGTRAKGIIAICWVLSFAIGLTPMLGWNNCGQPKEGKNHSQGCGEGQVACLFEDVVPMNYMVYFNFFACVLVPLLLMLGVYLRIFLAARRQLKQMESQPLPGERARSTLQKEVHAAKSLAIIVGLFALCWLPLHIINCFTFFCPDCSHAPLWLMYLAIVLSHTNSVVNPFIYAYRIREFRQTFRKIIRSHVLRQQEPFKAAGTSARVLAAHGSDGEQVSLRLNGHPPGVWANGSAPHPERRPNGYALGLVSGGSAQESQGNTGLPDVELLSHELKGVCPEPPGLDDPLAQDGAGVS

The term inhibition denotes the percentage by which the read-out fell short of the control. A lower inhibition goes with a weak effect. By Ki is commonly meant the dissociation constant of the complex between target and ligand, obtained from inhibition or displacement. Consider `C#CCCCCC#Cc1cccc(CNc2nc(Cl)nc3c2ncn3[C@H]2[C@H](O)[C@H](O)[C@@H]3C[C@@H]32)c1` [Compound 212, (1R,2R,3S,4R,5S)-4-(2-Chloro-6-(3-(octa-1,7-diynyl)benzylamino)-9H-purin-9-yl) bicyclo[3.1.0]hexane-2,3-diol], for which the values for the inhibition at 10 µM on human A1 AR and on hA2AAR were 48.5% and 44.1%, respectively. Also, the Ki on human A3AR is 2500 ± 640 nM.

`O=[N+]([O-])c1cc(-n2cc(CCCCC#Cc3cccc(CNc4nc(Cl)nc5c4ncn5[C@H]4[C@H](O)[C@H](O)[C@@H]5C[C@@H]54)c3)nn2)ccc1F` [Compound 215, (1R,2R,3S,4R,5S)-4-(2-Chloro-6-(3-(6-(1-(4-fluoro-3-nitrophenyl)-1H-1,2,3-triazol-4-yl)hex-1-ynyl)benzylamino)-9H-purin-9-yl)-bicyclo[3.1.0]hexane-2,3-diol]: the inhibition at 10 µM is 24.3% at human A1 AR and 8.2% on hA2AAR. For the same molecule, the Ki at human A3AR is 933 ± 720 nM.

Take `CNC(=O)[C@@]12C[C@@H]1[C@@H](n1cnc3c(NCc4cccc(C#CCCCCCc5cn(-c6ccc(F)c([N+](=O)[O-])c6)nn5)c4)nc(Cl)nc31)[C@H](O)[C@@H]2O` [Compound 205, (1S,2R,3S,4R,5S)-4-(2-Chloro-6-(3-(7-(1-(4-fluoro-3-nitrophenyl)-1H-1,2,3-triazol-4-yl)hept-1-ynyl)benzylamino)-9H-purin-9-yl)-2,3-dihydroxybicyclo[3.1.0]hexane-1-carboxylic acid-N-methylamide]: the Ki on human A1 AR came out at 1290 ± 290 nM; at human A3AR it was 30.1 ± 13 nM. At hA2AAR, this molecule returned an inhibition at 10 µM of 25.2%.

Take `C#CCNc1nc(Cl)nc2c1ncn2[C@H]1[C@H](O)[C@H](O)[C@]2(C(=O)NC)C[C@H]12` [Compound 218, (1S,2R,3S,4R,5S)-4-(2-Chloro-6-(prop-2-ynylamino)-9H-purin-9-yl)-2,3-dihydroxy-N-methylbicyclo[3.1.0]hexane-1-carboxamide]: the Ki on human A3AR was 1.9 nM.

For the molecule `CNC(=O)[C@@]12C[C@@H]1[C@@H](n1cnc3c(NCc4cn(-c5ccc(F)c([N+](=O)[O-])c5)nn4)nc(Cl)nc31)[C@H](O)[C@@H]2O` [Compound 219a, (1S,2R,3S,4R,5S)-4-(2-Chloro-6-((1-(4-fluoro-3-nitrophenyl)-1H-1,2,3-triazol-4-yl)methylamino)-9H-purin-9-yl)-2,3-dihydroxy-N-methylbicyclo[3.1.0]hexane-1-carboxamide], the inhibition at 10 µM was 38% on human A1 AR and 19.3% on hA2AAR. Further, at human A3AR, the Ki was 9.1 ± 1.9 nM.

Take `O=[N+]([O-])c1cc(-n2cc(CCCC#Cc3cccc(CNc4nc(Cl)nc5c4ncn5[C@H]4[C@H](O)[C@H](O)[C@@H]5C[C@@H]54)c3)nn2)ccc1F` [Compound 214, (1R,2R,3S,4R,5S)-4-(2-Chloro-6-(3-(5-(1-(4-fluoro-3-nitrophenyl)-1H-1,2,3-triazol-4-yl)pent-1-ynyl)benzylamino)-9H-purin-9-yl)-bicyclo[3.1.0]hexane-2,3-diol]: the inhibition at 10 µM at human A1 AR came to 11%; at hA2AAR, 16.7%. The Ki on human A3AR is 897 ± 20 nM.

As for `CNC(=O)[C@@]12C[C@@H]1[C@@H](n1cnc3c(NCc4cccc(I)c4)nc(Cl)nc31)[C@H](O)[C@@H]2O` [Compound 127, reference compound], the Ki at human A1 AR amounted to 136 ± 22 nM; at hA2AAR (Example 7, agonist radioligand [3H]46, HEK293, read-out: AR Affinity Ki, nM, A2A), 784 ± 97 nM.

Regarding `CNC(=O)[C@@]12C[C@@H]1[C@@H](n1cnc3c(NCc4cccc(C#CCCCCCc5cn(-c6ccc(F)c(N)c6)nn5)c4)nc(Cl)nc31)[C@H](O)[C@@H]2O` [Compound 208, (1S,2R,3S,4R,5S)-4-(2-Chloro-6-(3-(7-(1-(4-fluoro-3-amino-phenyl)-1H-1,2,3-triazol-4-yl)hept-1-ynyl)benzylamino)-9H-purin-9-yl)-2,3-dihydroxybicyclo[3.1.0]hexane-1-carboxylic acid-N-methylamide], the Ki at human A3AR was found to be 47.6 ± 11.3 nM.

Regarding `CNC(=O)[C@@]12C[C@@H]1[C@@H](n1cnc3c(NCc4cccc(C#CCCCc5cn(-c6ccc(F)c(N)c6)nn5)c4)nc(Cl)nc31)[C@H](O)[C@@H]2O` [Compound 207, (1S,2R,3S,4R,5S)-4-(2-Chloro-6-(3-(5-(1-(4-fluoro-3-amino-phenyl)-1H-1,2,3-triazol-4-yl)pent-1-ynyl)benzylamino)-9H-purin-9-yl)-2,3-dihydroxybicyclo[3.1.0]hexane-1-carboxylic acid-N-methylamide], the Ki at human A3AR worked out at 14.3 ± 2.3 nM.
